Reference: PubChem BioAssay (NCI)
“And” between values parts separate entries of the source, which are not always exact repeats. Equal values may be shown once.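 In this assay, cells in 96-well plates receive the compound at five concentrations for 48 hours. Endpoints are linearly interpolated between the surrounding concentrations. At the GI50, growth is halved. At the TGI there is no net growth.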

Legend:
Experiment in all cases: DTP human tumour cell line panel, 48 h
[1] = test system: A549 NSCLC
[2] = test system: UACC-257 melanoma
[3] = test system: NCI-H23 lung
[4] = test system: LOX IMVI melanoma
[5] = test system: OVCAR-4 ovarian
[6] = test system: SW-620 colon
[7] = test system: K-562 leukemia
[8] = test system: SK-MEL-2 melanoma
[9] = test system: NCI/ADR-RES ovarian
[10] = test system: SR leukemia

Structure (SMILES)	GI50 [1]	TGI [1] [µM]	GI50 [2] [µM]	TGI [2] [µM]	GI50 [3]	TGI [3] [µM]	GI50 [4]	TGI [4] [µM]	GI50 [5] [µM]	TGI [5] [µM]	GI50 [6]	TGI [6] [µM]	GI50 [7]	TGI [7] [µM]	GI50 [8]	TGI [8] [µM]	GI50 [9] [µM]	TGI [9] [µM]	GI50 [10] [µM]	TGI [10] [µM]
C=C1C(=O)O[C@H]2[C@H]1CC/C(CNC(=O)C(C)c1ccc(CC(C)C)cc1)=C\CC[C@@]1(C)O[C@@H]21 (some centres not stated)	2.37 µM	6.72	1.56	3.12	1.67 µM	3.32	1.45 µM	2.81	1.66	3.13	1.69 µM	3.55	2.29 µM	10.4	1.6 µM	3.18	2.07	5.47	–	–
COc1cc2c(cc1OC)-c1c(c3ccc([N+](=O)[O-])cc3c(=O)n1CCCN=[N+]=[N-])C2=O	56.6 µM	> 100	> 100	> 100	40.5 µM	> 100	25.3 µM	> 100	> 100	> 100	99.8 µM	> 100	19.6 µM	> 100	> 100 µM	> 100	31.7	> 100	0.509	3.68
CN(C)c1ccc2cc3c(cc2c1)Oc1ccccc1N3.[Cl][Zn][Cl]	20.9 µM	51.5	3.16	9.36	4.74 µM	21.7	1.6 µM	3.22	2.75	13.6	–	–	3.05 µM	> 100	9.65 µM	31.3	16.8	83.3	3.15	> 100
CC[C@H](C)[C@H](NC(=O)[C@H]1CCCCN1C)C(=O)N(C)[C@H](C[C@@H](OC(C)=O)c1nc(C(=O)NC23C4C5C2C2C3C4C52C(=O)OC)cs1)C(C)C (some centres not stated)	0.00879 µM and 0.0025 µM	> 25	–	–	0.00414 µM and 0.0025 µM	> 25	0.00108 µM and 0.0025 µM	> 25	0.0506	> 25	0.00149 µM and 0.0025 µM	> 25	0.000952 µM and 0.0025 µM	> 25	0.00185 µM and 0.0025 µM	0.00452	0.0676	–	–	5.98
C#Cc1cccc(Nc2ncnc3ccc(-c4cnc(N)nc4)cc23)c1	2.02 µM	14.4	6.57	46	3.67 µM	> 100	2.78 µM	11.3	2.59	14.8	4.23 µM	17.7	3.42 µM	> 100	2.11 µM	5.72	4.09	36.4	2.58	> 100
CCCCCCCCCCCCSC1=CC(=O)C=CC1=O	9.46 µM	> 50	4.01	15.9	5.69 µM	21.6	1.25 µM	4.3	2.17	9	17.9 µM	> 50	6.44 µM	> 36.9	7.5 µM	19.4	1.65	> 20.6	3.58	29.1
